Test results as given in patent US8895504B2, “Amylin derivatives” (priority 2008, dated 2014).
*1 amine or outer side, *2 acyl side, *3 side chain or, on linkers, in order; H or OH if unused. Where a SMILES comes first, the peptide text is derived from it. Bridges are numbered along the chain shown (N, C = ends). Side-chain parts run from the residue outwards. The star is where a group is joined. C20 diacid = O=C(O)CCCCCCCCCCCCCCCCCCC(=O)*; C18 diacid = O=C(O)CCCCCCCCCCCCCCCCC(=O)*; γGlu = O=C(O)[C@H](CCC(=O)[*:2])N[*:1]; AEEA = NCCOCCOCC(=O)O

Legend:
food intake = experiment: Pharmacological Assay (I) - efficacy testing on appetite, ad libitum fed rat model; format: in vivo, Sprague Dawley (SD) rats; settings: 30 nmol/kg vs vehicle, ad libitum fed rats, n=5-7, 0-48 hours
From the text: Assays Pharmacological Assay (I)—Experimental Protocol for Efficacy Testing on Appetite with an Amylin Derivative, Using an Ad Libitum Fed Rat Model. Sprague Dawley (SD) rats from Taconic Europe, Denmark are used for the experiments. The rats have a body weight 200-250 g at the start of experiment. The rats arrive at least 10-14 days before start of experiment to allow acclimatization to experimental settings. During this period the animals are handled at least 2 times. After arrival rats are housed individually for one week in a reversed light/dark phase (meaning that lights are off during daytime and on during nighttime) for two weeks. Since rats are normally active and eat their major part of their daily food intake during the dark period, rats are dosed in the morning right before lights are turned off. This set-up results in the lowest data variation and highest test sensitivity. The experiment is conducted in the rats' home cages and rats have free access to food and water throughout the acclimatization period and the experiment period. Each dose of derivative is tested in a group of 5-8 rats. A vehicle group of 6-8 rats is included in each set of testing. Rats are dosed once according to body weight with a 0.01-3 mg/kg solution administered intraperitoneally (ip), orally (po) or subcutaneously (sc). The time of dosing is recorded for each group. After dosing, the rats are returned to their home cages, where they then have access to food and water. The food consumption is recorded individually continuously by on-line registration or manually every hour for 7 hours, and then after 24 h and sometimes 48 h. At the end of the experimental session, the animals are euthanized. The individual data are recorded in Microsoft excel sheets. Outliers are excluded after applying the Grubbs statistical evaluation test for outliers, and the result is presented graphically using the GraphPad Prism program.

[1] = molecular target: T1, Amylin 3(a) receptor (human calcitonin receptor (CTa) and RAMP-3) (Homo sapiens, UniProt O60896+P30988); experiment: Luciferase assay (III), BHK Amylin 3(a)//CRE-luc cells; format: cell-based; settings: BHK cells with Amylin 3(a) receptor and CRE luciferase reporter, 4 hours incubation; read-out: Potency Luciferase
T1 construct: expressed in transfected cells; host or cells: BHK570 cells, stably transfected with a CRE-luciferase reporter
Outline: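 BHK570 cells stably expressing CTa, RAMP-3 and a CRE-luciferase reporter, seeded at about 20,000 cells/well and grown overnight. Cells were exposed to standard or sample for 4 h at 37° C in phenol red-free DMEM with 10% FBS and 10 mM Hepes, pH 7,4. Luminescence was read after 30 min LucLite at room temperature.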

T1 sequence (O60896 24-148): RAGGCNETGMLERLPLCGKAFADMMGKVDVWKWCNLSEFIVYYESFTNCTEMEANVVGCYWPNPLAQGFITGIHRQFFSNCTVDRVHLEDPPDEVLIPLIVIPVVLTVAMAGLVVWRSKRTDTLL
T1 sequence (P30988 25-474): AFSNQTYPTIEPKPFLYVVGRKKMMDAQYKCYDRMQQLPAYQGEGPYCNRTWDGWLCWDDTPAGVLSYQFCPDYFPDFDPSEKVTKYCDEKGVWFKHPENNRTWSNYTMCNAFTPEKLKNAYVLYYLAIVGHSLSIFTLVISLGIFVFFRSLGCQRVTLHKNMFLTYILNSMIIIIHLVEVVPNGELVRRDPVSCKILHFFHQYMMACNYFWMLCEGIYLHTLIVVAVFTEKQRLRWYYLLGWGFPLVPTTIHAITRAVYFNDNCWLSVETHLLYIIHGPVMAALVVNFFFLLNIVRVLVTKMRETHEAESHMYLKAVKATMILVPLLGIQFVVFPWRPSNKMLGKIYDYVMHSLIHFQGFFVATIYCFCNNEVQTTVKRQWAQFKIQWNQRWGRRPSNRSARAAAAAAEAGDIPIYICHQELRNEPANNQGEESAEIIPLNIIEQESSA

SMILES	food intake over a period of 48 hours (food intake)	EC50 [1] [nM]
CC[C@H](C)[C@H](NC(=O)[C@@H]1CCCN1C(=O)CNC(=O)[C@H](Cc1ccccc1)NC(=O)[C@H](CC(N)=O)NC(=O)[C@H](CC(N)=O)NC(=O)[C@H](CO)NC(=O)[C@H](CO)NC(=O)[C@H](Cc1c[nH]cn1)NC(=O)[C@H](Cc1c[nH]cn1)NC(=O)[C@H](CC(C)C)NC(=O)[C@H](Cc1ccccc1)NC(=O)[C@H](CC(N)=O)NC(=O)[C@H](C)NC(=O)[C@H](CC(C)C)NC(=O)[C@H](CCCNC(=N)N)NC(=O)[C@H](CCC(N)=O)NC(=O)[C@@H](NC(=O)[C@H](C)NC(=O)[C@@H]1CSSC[C@H](NC(=O)[C@H](Cc2c[nH]cn2)NC(=O)[C@H](Cc2c[nH]cn2)NC(=O)COCCOCCNC(=O)CC[C@H](NC(=O)CCCCCCCCCCCCCCCCCCC(=O)O)C(=O)O)C(=O)N[C@@H](CC(N)=O)C(=O)N[C@@H]([C@@H](C)O)C(=O)N[C@@H](C)C(=O)N[C@@H]([C@@H](C)O)C(=O)N1)[C@@H](C)O)C(=O)N[C@@H](CC(C)C)C(=O)N1CCC[C@H]1C(=O)N1CCC[C@H]1C(=O)N[C@H](C(=O)N[C@@H](CC(N)=O)C(=O)N[C@H](C(=O)NCC(=O)N[C@@H](CO)C(=O)N[C@@H](CC(N)=O)C(=O)N[C@H](C(=O)N[C@@H](Cc1ccc(O)cc1)C(N)=O)[C@@H](C)O)C(C)C)[C@@H](C)O [Example 38, N-alpha-[2-(2-{2-[4-(S)-Carboxy-4-(19-carboxynonadecanoylamino)butyrylamino]ethoxy}ethoxy)acetyl]-His-[His1,His17]-pramlintide] ({C20 diacid-γGlu-AEEA}-HHCNTATCATQRLANFLHHSSNNFGPILPPTNVGSNTY-NH2; disulfide 3-8)	effectively reducing food intake	0.1
CC[C@H](C)[C@H](NC(=O)[C@@H]1CCCN1C(=O)CNC(=O)[C@H](Cc1ccccc1)NC(=O)[C@H](CC(N)=O)NC(=O)[C@H](CC(=O)O)NC(=O)[C@H](CO)NC(=O)[C@H](CO)NC(=O)[C@H](Cc1c[nH]cn1)NC(=O)[C@H](Cc1c[nH]cn1)NC(=O)[C@H](CC(C)C)NC(=O)[C@H](Cc1ccccc1)NC(=O)[C@H](CC(N)=O)NC(=O)[C@H](C)NC(=O)[C@H](CC(C)C)NC(=O)[C@H](CCCNC(=N)N)NC(=O)[C@H](CCC(N)=O)NC(=O)[C@@H](NC(=O)[C@H](C)NC(=O)[C@@H]1CSSC[C@H](NC(=O)[C@@H](N)CCCCN)C(=O)N[C@@H](CCCCNC(=O)COCCOCCNC(=O)[C@H](CCC(=O)O)NC(=O)[C@H](CCC(=O)O)NC(=O)CCCCCCCCCCCCCCCCCCC(=O)O)C(=O)N[C@@H]([C@@H](C)O)C(=O)N[C@@H](C)C(=O)N[C@@H]([C@@H](C)O)C(=O)N1)[C@@H](C)O)C(=O)N[C@@H](CC(C)C)C(=O)N1CCC[C@H]1C(=O)N1CCC[C@H]1C(=O)N[C@H](C(=O)N[C@@H](CC(N)=O)C(=O)N[C@H](C(=O)NCC(=O)N[C@@H](CO)C(=O)N[C@@H](CC(N)=O)C(=O)N[C@H](C(=O)N[C@@H](Cc1ccc(O)cc1)C(N)=O)[C@@H](C)O)C(C)C)[C@@H](C)O [Example 3, N-epsilon3-{2-[2-(2-{(S)-4-Carboxy-2-[(S)-4-carboxy-2-(19-carboxynonadecanoylamino)butyrylamino]butyrylamino}ethoxy)ethoxy]acetyl}-[Lys3,His17,Asp21]-pramlintide] (H-KCK([AEEA-Glu-Glu-C20 diacid])TATCATQRLANFLHHSSDNFGPILPPTNVGSNTY-NH2; disulfide 2-7)	effectively reducing food intake	0.4
CC[C@H](C)[C@H](NC(=O)[C@@H]1CCCN1C(=O)CNC(=O)[C@H](Cc1ccccc1)NC(=O)[C@H](CC(N)=O)NC(=O)[C@H](CC(N)=O)NC(=O)[C@H](CO)NC(=O)[C@H](CO)NC(=O)[C@H](Cc1c[nH]cn1)NC(=O)[C@H](Cc1c[nH]cn1)NC(=O)[C@H](CC(C)C)NC(=O)[C@H](Cc1ccccc1)NC(=O)[C@H](CC(N)=O)NC(=O)[C@H](C)NC(=O)[C@H](CC(C)C)NC(=O)[C@H](CCCNC(=N)N)NC(=O)[C@H](CCC(N)=O)NC(=O)[C@@H](NC(=O)[C@H](C)NC(=O)[C@@H]1CSSC[C@H](NC(=O)[C@H](CCCNC(=N)N)NC(=O)COCCOCCNC(=O)COCCOCCNC(=O)CC[C@H](NC(=O)CCCCCCCCCCCCCCCCC(=O)O)C(=O)O)C(=O)N[C@@H](CC(N)=O)C(=O)N[C@@H]([C@@H](C)O)C(=O)N[C@@H](C)C(=O)N[C@@H]([C@@H](C)O)C(=O)N1)[C@@H](C)O)C(=O)N[C@@H](CC(C)C)C(=O)N1CCC[C@H]1C(=O)N1CCC[C@H]1C(=O)N[C@H](C(=O)N[C@@H](CC(N)=O)C(=O)N[C@H](C(=O)NCC(=O)N[C@@H](CO)C(=O)N[C@@H](CC(N)=O)C(=O)N[C@H](C(=O)N[C@@H](Cc1ccc(O)cc1)C(N)=O)[C@@H](C)O)C(C)C)[C@@H](C)O [Example 45, N-alpha-[2-(2-{2-[2-(2-{2-[(S)-4-Carboxy-4-(17-carboxyheptadecanoylamino)butyrylamino]ethoxy}ethoxy)acetylamino]ethoxy}ethoxy)acetyl][Arg1,His17]-pramlintide] ({C18 diacid-γGlu-AEEA-AEEA}-RCNTATCATQRLANFLHHSSNNFGPILPPTNVGSNTY-NH2; disulfide 2-7)	effectively reducing food intake	0.03
